From patent US10519152B2, “Compounds and their use in treating cancer” (AstraZeneca AB, priority 2017, dated 2019) come the findings set out here.

The assay has as its target T1, Estrogen Receptor (ERα) in MCF-7 human ductal carcinoma breast cell line (Homo sapiens, UniProt P03372).
T1 construct: endogenous in cells; host or cells: MCF-7
T1 sequence (P03372 1-595): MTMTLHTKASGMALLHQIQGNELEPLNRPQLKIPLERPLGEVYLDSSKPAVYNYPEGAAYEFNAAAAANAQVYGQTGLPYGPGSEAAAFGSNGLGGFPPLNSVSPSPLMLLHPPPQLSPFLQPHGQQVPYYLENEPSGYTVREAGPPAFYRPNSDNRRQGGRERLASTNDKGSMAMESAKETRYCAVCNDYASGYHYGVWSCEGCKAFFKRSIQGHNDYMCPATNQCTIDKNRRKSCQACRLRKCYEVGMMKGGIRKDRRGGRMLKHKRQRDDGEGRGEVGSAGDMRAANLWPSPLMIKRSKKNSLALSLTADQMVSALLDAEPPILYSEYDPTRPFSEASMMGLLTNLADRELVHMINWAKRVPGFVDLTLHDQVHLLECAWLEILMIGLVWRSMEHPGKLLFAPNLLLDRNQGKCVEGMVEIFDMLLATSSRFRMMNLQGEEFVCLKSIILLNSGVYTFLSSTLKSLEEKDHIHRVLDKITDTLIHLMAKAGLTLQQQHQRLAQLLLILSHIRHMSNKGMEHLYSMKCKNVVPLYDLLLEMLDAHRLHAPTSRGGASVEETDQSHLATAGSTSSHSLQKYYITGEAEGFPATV
Briefly: MCF-7 ER degradation assay (cell based immuno-fluorescence). Conditions: MCF-7 cells; for ER degradation ≥ 90% at 0.3 μM: ER degradation by fulvestrant at 0.3 μM is defined as 100%; for DC50: 18-22 hours incubation, 50% reduction of ERα expression, single experiment or average of two or more, read-out: MCF-7 ER degradation IC50. Put shortly:
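MCF-7 human ductal carcinoma breast cells were seeded at 3.75×10^4 cells per mL (40 μL per well) in 384 well plates with phenol red free DMEM containing 2 mM L-Glutamine and 5% (v/v) Charcoal/Dextran treated foetal calf serum. After overnight culture, compounds were acoustically dispensed, incubated 18-22 hours, then cells were formaldehyde-fixed and immunostained for ERα.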

Regarding `Cc1ncsc1-c1ccc(CNC(=O)[C@@H]2C[C@@H](O)CN2C(=O)[C@@H](NC(=O)COCCCCCOCCOc2ccc([C@@H]3c4[nH]c5ccccc5c4C[C@@H](C)N3CC(F)F)nc2)C(C)(C)C)cc1` [Example 10, (2S,4R)-1-((S)-2-(2-((5-(2-((6-((1S,3R)-2-(2,2-Difluoroethyl)-3-methyl-2,3,4,9-tetrahydro-1H-pyrido[3,4-b]indol-1-yl)pyridin-3-yl)oxy)ethoxy)pentyl)oxy)acetamido)-3,3-dimethylbutanoyl)-4-hydroxy-N-(4-(4-methylthiazol-5-yl)benzyl)pyrrolidine-2-carboxamide], the “ER degradation ≥ 90% at 0.3 μM” value is “••” and the DC50 worked out at 12 nM.

With `Cc1ncsc1-c1ccc(CNC(=O)[C@@H]2C[C@@H](O)CN2C(=O)[C@@H](NC(=O)CCCCCCCCCOc2cc(F)c([C@@H]3c4[nH]c5ccccc5c4C[C@@H](C)N3CC(C)(C)F)c(F)c2)C(C)(C)C)cc1` [Example 11, (2S,4R)-1-((S)-2-(10-(3,5-Difluoro-4-((1R,3R)-2-(2-fluoro-2-methylpropyl)-3-methyl-2,3,4,9-tetrahydro-1H-pyrido[3,4-b]indol-1-yl)phenoxy)decanamido)-3,3-dimethylbutanoyl)-4-hydroxy-N-(4-(4-methylthiazol-5-yl)benzyl)pyrrolidine-2-carboxamide], the “ER degradation ≥ 90% at 0.3 μM” value is reported as “••” and the DC50 was 3.2 nM.

Regarding `Cc1ncsc1-c1ccc(CNC(=O)[C@@H]2C[C@@H](O)CN2C(=O)[C@@H](NC(=O)COCCCCCCCCOc2cc(F)c([C@@H]3c4[nH]c5ccccc5c4C[C@@H](C)N3CC(C)(C)F)c(F)c2)C(C)(C)C)cc1` [Example 12, (2S,4R)-1-((S)-2-(2-((8-(3,5-Difluoro-4-((1R,3R)-2-(2-fluoro-2-methylpropyl)-3-methyl-2,3,4,9-tetrahydro-1H-pyrido[3,4-b]indol-1-yl)phenoxy)octyl)oxy)acetamido)-3,3-dimethylbutanoyl)-4-hydroxy-N-(4-(4-methylthiazol-5-yl)benzyl)pyrrolidine-2-carboxamide], the “ER degradation ≥ 90% at 0.3 μM” value is on record as “••” and the DC50 came out at 6.6 nM.

Consider `Cc1ncsc1-c1ccc(CNC(=O)[C@@H]2C[C@@H](O)CN2C(=O)[C@@H](NC(=O)COCCCCCCCCOc2ccc([C@@H]3c4[nH]c5ccccc5c4C[C@@H](C)N3CC(F)F)nc2)C(C)(C)C)cc1` [Example 13, (2S,4R)-1-((S)-2-(2-((8-((6-((1S,3R)-2-(2,2-Difluoroethyl)-3-methyl-2,3,4,9-tetrahydro-1H-pyrido[3,4-b]indol-1-yl)pyridin-3-yl)oxy)octyl)oxy)acetamido)-3,3-dimethylbutanoyl)-4-hydroxy-N-(4-(4-methylthiazol-5-yl)benzyl)pyrrolidine-2-carboxamide], for which the “ER degradation ≥ 90% at 0.3 μM” value is on record as “•” and the DC50 amounted to 3.7 nM.

Turning to `Cc1ncsc1-c1ccc(CNC(=O)[C@@H]2C[C@@H](O)CN2C(=O)[C@@H](NC(=O)COCCCCOc2cc(F)c([C@@H]3c4[nH]c5ccccc5c4C[C@@H](C)N3CC(C)(C)F)c(F)c2)C(C)(C)C)cc1` [Example 14, (2S,4R)-1-((S)-2-(2-(4-(3,5-Difluoro-4-((1R,3R)-2-(2-fluoro-2-methylpropyl)-3-methyl-2,3,4,9-tetrahydro-1H-pyrido[3,4-b]indol-1-yl)phenoxy)butoxy)acetamido)-3,3-dimethylbutanoyl)-4-hydroxy-N-(4-(4-methylthiazol-5-yl)benzyl)pyrrolidine-2-carboxamide], the “ER degradation ≥ 90% at 0.3 μM” value is “•” and the DC50 was found to be 1.4 nM.
